Laboratory results: ChEMBL document CHEMBL4354830, “Discovery of Benzo[cd]indol-2(1H)-ones and Pyrrolo[4,3,2-de]quinolin-2(1H)-ones as Bromodomain and Extra-Terminal Domain (BET) Inhibitors with Selectivity for the First Bromodomain with Potential High Efficiency against Acute Gouty Arthritis” (J Med Chem, 2019)
Active and inactive are the calls of the source. No cut-off for these calls is given here.

Experiments:
[1] = target: T1, Bromodomain-containing protein 4 (Homo sapiens, UniProt O60885); test: Displacement of tetra-acetylated histone H4 peptide (1-21) from recombinant human N-terminal His-tagged BRD4 BD2 (349 to 460 residues) expressed in Escherichia coli incubated for 30 mins followed by further incubation with tetra-acetylated histone H4 peptide (1-21) for 30 mins by Alphascreen assay
RAW264.7 = test: Inhibition of LPS-induced NO overproduction in mouse RAW264.7 cells at 1 uM incubated for 2 hrs followed by LPS stimulation and measured after 22 hrs by Griess reagent based assay relative to control; type: functional; settings: Mus musculus, RAW264.7
[2] = target: Bromodomain testis-specific protein (Homo sapiens, UniProt Q58F21); test: Displacement of tetra-acetylated histone H4 peptide (1-21) from BRDT BD1 (unknown origin) incubated for 30 mins followed by further incubation with tetra-acetylated histone H4 peptide (1-21) for 30 mins by Alphascreen assay
[3] = target: Bromodomain-containing protein 3 (Homo sapiens, UniProt Q15059); test: Displacement of tetra-acetylated histone H4 peptide (1-21) from BRD3 BD2 (unknown origin) incubated for 30 mins followed by further incubation with tetra-acetylated histone H4 peptide (1-21) for 30 mins by Alphascreen assay
Homo sapiens [4] = species: Homo sapiens; test: Selectivity index, ratio of IC50 BRD2 BD1 (unknown origin) to IC50 for recombinant human N-terminal His-tagged BRD4 BD1 (44 to 170 residues) expressed in Escherichia coli by AlphaScreen assay
Homo sapiens [5] = species: Homo sapiens; test: Selectivity index, ratio of IC50 for BRD3 BD1 (unknown origin) to IC50 for recombinant human N-terminal His-tagged BRD4 BD1 (44 to 170 residues) expressed in Escherichia coli by AlphaScreen assay
Homo sapiens [6] = species: Homo sapiens; test: Selectivity index, ratio of IC50 for BRDT BD1 (unknown origin) to IC50 for recombinant human N-terminal His-tagged BRD4 BD1 (44 to 170 residues) expressed in Escherichia coli by AlphaScreen assay
Homo sapiens [7] = species: Homo sapiens; test: Selectivity index, ratio of IC50 for BRD3 BD2 (unknown origin) to IC50 for recombinant human N-terminal His-tagged BRD4 BD1 (44 to 170 residues) expressed in Escherichia coli by AlphaScreen assay
Homo sapiens [8] = species: Homo sapiens; test: Selectivity index, ratio of IC50 for BRD2 BD2 (unknown origin) to IC50 for BRD2 BD1 (unknown origin) by AlphaScreen assay
[9] = target: T1, Bromodomain-containing protein 4; test: Binding affinity to immobilized DNA-tagged human BRD4 BD1 by BROMOscan analysis
[10] = Metabolic stability in human liver microsomes assessed as half life measured upto 60 mins by LC/MS-MS analysis; type: ADME, Microsome
[11] = Metabolic stability in human liver microsomes assessed as intrinsic clearance measured per mg protein upto 60 mins by LC/MS-MS analysis; type: ADME, Microsome; settings: read-out: CLH
[12] = Metabolic stability in human assessed as intrinsic hepatic clearance by LC/MS-MS analysis; type: ADME; settings: read-out: CLH
[13] = Metabolic stability in monkey liver microsomes assessed as intrinsic clearance per mg protein measured upto 60 mins by LC/MS-MS analysis; type: ADME, Macaca mulatta, Microsome; settings: rhesus monkey, read-out: CLH
[14] = Metabolic stability in dog liver microsomes assessed as half life measured upto 60 mins by LC/MS-MS analysis; type: ADME, Canis lupus familiaris, Microsome
[15] = Metabolic stability in dog assessed as intrinsic hepatic clearance by LC/MS-MS analysis; type: ADME, Canis lupus familiaris; settings: read-out: CLH
[16] = Metabolic stability in rat liver microsomes assessed as intrinsic clearance measured per mg protein upto 60 mins by LC/MS-MS analysis; type: ADME, Microsome; settings: read-out: CLH
[17] = target: T1, Bromodomain-containing protein 4; test: Inhibition of BRD4 BD1 in human THP1 cells assessed as inhibition of MSU-induced NLRP3 inflammasome at 1 uM incubated for 1 hr followed by MSU treatment and measured after 12 hrs by immunofluorescence based confocal microscopy analysis; type: cell-based
[18] = target: T1, Bromodomain-containing protein 4; test: Inhibition of BRD4 BD1 in human THP1 cells assessed as Inhibition of MSU-induced IL-1beta secretion at 1 uM incubated for 1 hr followed by MSU treatment and measured after 12 hrs by ELISA; type: cell-based
Rattus norvegicus [19] = test: Anti-arthritic activity in Sprague-Dawley rat model of acute gout arthritis assessed as reduction in MSU-induced synovial hyperplasia at 1 mg/kg, ia administered 1 hr before MSU challenge and measured upto 24 hrs by hematoxylin and eosin staining based histopathological analysis; type: functional, organism-based
Rattus norvegicus [20] = test: Anti-arthritic activity in Sprague-Dawley rat model of acute gout arthritis assessed as reduction in MSU-induced IL-1beta level in synovial tissue at 1 mg/kg, ia administered 1 hr before MSU challenge and measured upto 24 hrs by ELISA; type: functional, organism-based
Rattus norvegicus [21] = test: In vivo inhibition of MSU-induced BRD4 expression in synovial tissue of Sprague-Dawley rat model of acute gout arthritis at 1 mg/kg, ia administered 1 hr before MSU challenge and measured upto 24 hrs by Western blot analysis; type: functional, organism-based
Rattus norvegicus [22] = test: In vivo inhibition of MSU-induced NF-kappaB P65 phosphorylation in synovial tissue of Sprague-Dawley rat model of acute gout arthritis at 1 mg/kg, ia administered 1 hr before MSU challenge and measured upto 24 hrs by Western blot analysis; type: functional, organism-based
[23] = target: T1, Bromodomain-containing protein 4; test: Inhibition of BRD4 BD1 in human THP1 cells assessed as inhibition of MSU-induced pyroptosis by measuring caspase-/PI+ cells at 1 uM incubated for 1 hr followed by MSU treatment and measured after 12 hrs by PI/caspase 1 double staining based flow cytometric analysis (reference value: 6.8 %); type: cell-based; set-up: scale not given: the % may be the effect or the level left
Homo sapiens [24] = species: Homo sapiens; test: Selectivity ratio of Kd for immobilized DNA-tagged human BRD4 BD1 to Kd for immobilized DNA-tagged human BRD4 BD2 by BROMOscan analysis

Sequence of Bromodomain-containing protein 3 (Q15059 whole entry, the tested form may be a part): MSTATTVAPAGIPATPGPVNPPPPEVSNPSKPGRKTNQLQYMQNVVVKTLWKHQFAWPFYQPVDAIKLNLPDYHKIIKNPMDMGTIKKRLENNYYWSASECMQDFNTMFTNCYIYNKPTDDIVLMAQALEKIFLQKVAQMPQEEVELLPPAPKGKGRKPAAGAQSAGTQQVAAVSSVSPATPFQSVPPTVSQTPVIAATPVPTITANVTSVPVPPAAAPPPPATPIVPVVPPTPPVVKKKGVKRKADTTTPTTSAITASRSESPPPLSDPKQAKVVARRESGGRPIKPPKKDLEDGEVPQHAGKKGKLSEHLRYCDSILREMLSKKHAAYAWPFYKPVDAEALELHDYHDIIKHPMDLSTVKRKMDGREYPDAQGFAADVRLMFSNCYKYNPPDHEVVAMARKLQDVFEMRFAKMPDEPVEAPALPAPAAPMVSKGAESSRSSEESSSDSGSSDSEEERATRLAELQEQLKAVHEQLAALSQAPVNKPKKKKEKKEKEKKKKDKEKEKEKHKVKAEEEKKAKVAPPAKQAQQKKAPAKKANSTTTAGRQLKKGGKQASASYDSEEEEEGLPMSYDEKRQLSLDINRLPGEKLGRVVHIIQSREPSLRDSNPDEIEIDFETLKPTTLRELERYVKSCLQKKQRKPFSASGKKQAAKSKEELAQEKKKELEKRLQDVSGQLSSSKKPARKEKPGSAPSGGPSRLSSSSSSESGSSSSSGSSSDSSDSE

- IC50 [1]: 12.1 µM
- IC50 [2]: 0.357 µM
- IC50 [3]: 49.8 µM
- Ratio IC50 (Homo sapiens [4]): 102
- Ratio IC50 (Homo sapiens [5]): 2.8
- Ratio IC50 (Homo sapiens [6]): 4.1
- Ratio IC50 (Homo sapiens [7]): 568
- Ratio IC50 (Homo sapiens [8]): 2.4
- Kd [9]: 0.105 µM
- half-life [10]: 14.8 min
- microsomal CLint [11]: 93.5 µL/min/mg
- CLint scaled [12]: 88.4 mL/min/kg
- microsomal CLint [13]: 135 µL/min/mg
- half-life [14]: 10.4 min
- CLint scaled [15]: 192 mL/min/kg
- microsomal CLint [16]: 147 µL/min/mg
- inhibition [17]: Active
- inhibition [18]: Active
- Activity [23]: 4.9%
- Selectivity ratio (Homo sapiens [24]): 238
Structure (SMILES): COc1ccccc1S(=O)(=O)Nc1ccc2c3c(cc(-n4cnc(C)c4)nc13)C(=O)N2C
- inhibition at 1 µM (RAW264.7): 102%
- inhibition (Rattus norvegicus [19]): Active
- inhibition (Rattus norvegicus [20]): Active
- inhibition (Rattus norvegicus [21]): Active
- inhibition (Rattus norvegicus [22]): Active
